pEC50: −log10 of the molar value.
Key:
human DHODH = target: T1, human DHODH (Homo sapiens, UniProt Q02127); assay: DHODH Enzymatic Assay; format: biochemical; details: purified human DHODH; DCIP absorbance, end-point mode
T1 construct: purchased Proteros PR-0044
Protocol: To detect DHODH enzyme activities, dichloroindophenol (DCIP) is added as the final electron acceptor in the assay. DCIP can accept electrons from the reduced coenzyme Q generated in the assay, or from dihydroorotate (DHO) via FMN by binding presumably to the ubiquinone pocket. […] The assay buffer contained […], pH 7.5, 150 mM NaCl, 0.5 mM EDTA, and 0.1% Triton X-100 in MilliQ water. Substrate consisting of 20 mM DHO, 5 mM CoQ6, and 1 mM DCIP in assay buffer, initiates the reaction. […] Absorbance measurements were obtained using the BMG Phera Star plate-reading spectrophotomer. Purified human DHODH was purchased from Proteros (cat. No. PR-0044). Chemicals were purchased from Sigma-Aldrich, Teknova, and Avanti Polar Lipids. Liquid handling was performed using Labcyte Echo and Formulatrix Tempest.

MOLM-13 cells = assay: MOLM-13 Cellular Assay; format: cell-based; details: Homo sapiens, 72 hours exposure, cell viability by CellTiter-Glo
Protocol: The day prior to assay set-up, cells were pelleted, resuspended in fresh media, counted, and cells were plated at 0.4×10^6 cell/mL in a T150 flask. […] Cells were exposed to different concentrations of test compounds at 37° C., 5% CO2 for 72 hours immediately after seeding.

T1 sequence (Q02127 whole entry): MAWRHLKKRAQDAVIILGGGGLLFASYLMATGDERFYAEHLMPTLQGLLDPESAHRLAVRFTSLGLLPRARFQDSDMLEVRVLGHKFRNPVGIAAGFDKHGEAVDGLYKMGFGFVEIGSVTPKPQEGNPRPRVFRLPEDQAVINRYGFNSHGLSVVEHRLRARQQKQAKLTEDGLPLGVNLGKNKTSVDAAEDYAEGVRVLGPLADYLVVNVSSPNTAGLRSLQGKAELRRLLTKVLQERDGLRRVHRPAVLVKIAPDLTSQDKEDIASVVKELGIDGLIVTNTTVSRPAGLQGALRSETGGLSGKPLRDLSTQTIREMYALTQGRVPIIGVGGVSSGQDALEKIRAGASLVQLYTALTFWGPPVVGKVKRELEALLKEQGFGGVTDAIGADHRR

Structure (SMILES)	pEC50 (human DHODH)	pEC50 (MOLM-13 cells)
CCn1c(CO)nn(-c2nc(OC3CC(F)(F)C3(F)F)c(C(=O)Nc3c(F)cccc3Cl)cc2F)c1=O (racemic) [Example 8, Racemic-N-(2-Chloro-6-fluorophenyl)-6-(4-ethyl-3-(hydroxymethyl)-5-oxo-4,5-dihydro-1H-1,2,4-triazol-1-yl)-5-fluoro-2-(2,2,3,3-tetrafluorocyclobutoxy)nicotinamide]	7.66	7.80
CCn1c(CO)nn(-c2nc(OC3CCOC3)c(C(=O)Nc3c(F)cccc3Cl)cc2F)c1=O (racemic) [Example 9, Racemic-N-(2-Chloro-6-fluorophenyl)-6-(4-ethyl-3-(hydroxymethyl)-5-oxo-4,5-dihydro-1H-1,2,4-triazol-1-yl)-5-fluoro-2-((tetrahydrofuran-3-yl)oxy)nicotinamide]	7.50	7.73
CCn1c(CO)nn(-c2nc(O[C@@H](C)C(F)(F)F)c(C(=O)Nc3c(F)cccc3Cl)cc2F)c1=O [Example 1, (S)-N-(2-Chloro-6-fluorophenyl)-6-(4-ethyl-3-(hydroxymethyl)-5-oxo-4,5-dihydro-1H-1,2,4-triazol-1-yl)-5-fluoro-2-((1,1,1-trifluoropropan-2-yl)oxy)nicotinamide]	9.63	9.81
CCn1c(CO)nn(-c2nc(O[C@@H](C)C(F)(F)F)c(C(=O)Nc3c(C)ccnc3Cl)cc2F)c1=O [Example 5, (S)-N-(2-Chloro-4-methylpyridin-3-yl)-6-(4-ethyl-3-(hydroxymethyl)-5-oxo-4,5-dihydro-1H-1,2,4-triazol-1-yl)-5-fluoro-2-((1,1,1-trifluoropropan-2-yl)oxy)nicotinamide]	8.92	8.70
CCn1c(CO)nn(-c2nc(O[C@@H](C)C(F)(F)F)c(C(=O)Nc3ccncc3Cl)cc2F)c1=O [Example 10, (S)-N-(3-Chloropyridin-4-yl)-6-(4-ethyl-3-(hydroxymethyl)-5-oxo-4,5-dihydro-1H-1,2,4-triazol-1-yl)-5-fluoro-2-((1,1,1-trifluoropropan-2-yl)oxy)nicotinamide]	7.64	7.22
CCn1c(CO)nn(-c2nc(O[C@@H](C)C(F)(F)F)c(C(=O)Nc3cnsc3)cc2F)c1=O [Example 12, (S)-6-(4-Ethyl-3-(hydroxymethyl)-5-oxo-4,5-dihydro-1H-1,2,4-triazol-1-yl)-5-fluoro-N-(isothiazol-4-yl)-2-((1,1,1-trifluoropropan-2-yl)oxy)nicotinamide]	6.49	6.17
CCn1c(CO)nn(-c2nc(O[C@@H](C)C(F)(F)F)c(C(=O)Nc3c(C)ccnc3C(F)F)cc2F)c1=O [Example 13, (S)-N-(2-(Difluoromethyl)-4-methylpyridin-3-yl)-6-(4-ethyl-3-(hydroxymethyl)-5-oxo-4,5-dihydro-1H-1,2,4-triazol-1-yl)-5-fluoro-2-((1,1,1-trifluoropropan-2-yl)oxy)nicotinamide]	8.66	8.48
CCn1c(COC)nn(-c2nc(O[C@@H](C)C(F)(F)F)c(C(=O)Nc3c(F)cccc3Cl)cc2F)c1=O [Example 14, (S)-N-(2-Chloro-6-fluorophenyl)-6-(4-ethyl-3-(methoxymethyl)-5-oxo-4,5-dihydro-1H-1,2,4-triazol-1-yl)-5-fluoro-2-((1,1,1-trifluoropropan-2-yl)oxy)nicotinamide]	> 8.77	9.70
CCn1c(CO)nn(-c2nc(O[C@@H](C)C(F)(F)F)c(C(=O)Nc3csnc3C)cc2F)c1=O [Example 17, (S)-6-(4-Ethyl-3-(hydroxymethyl)-5-oxo-4,5-dihydro-1H-1,2,4-triazol-1-yl)-5-fluoro-N-(3-methylisothiazol-4-yl)-2-((1,1,1-trifluoropropan-2-yl)oxy)nicotinamide]	7.51	7.06
CCn1c(CO)nn(-c2nc(O[C@@H](C)C(F)(F)F)c(C(=O)Nc3c(C)ccnc3C)cc2F)c1=O [Example 18, (S)-N-(2,4-Dimethylpyridin-3-yl)-6-(4-ethyl-3-(hydroxymethyl)-5-oxo-4,5-dihydro-1H-1,2,4-triazol-1-yl)-5-fluoro-2-((1,1,1-trifluoropropan-2-yl)oxy)nicotinamide]	8.43	7.89
CCn1c(CO)nn(-c2nc(O[C@@H](C)C(F)(F)F)c(C(=O)Nc3nccnc3Cl)cc2F)c1=O [Example 19, (S)-N-(3-Chloropyrazin-2-yl)-6-(4-ethyl-3-(hydroxymethyl)-5-oxo-4,5-dihydro-1H-1,2,4-triazol-1-yl)-5-fluoro-2-((1,1,1-trifluoropropan-2-yl)oxy)nicotinamide]	7.39	7.29
CCn1c(CO)nn(-c2nc(O[C@@H](C)C(F)(F)F)c(C(=O)Nc3cc[nH]c(=O)c3Cl)cc2F)c1=O [Example 20, (S)-N-(3-Chloro-2-oxo-1,2-dihydropyridin-4-yl)-6-(4-ethyl-3-(hydroxymethyl)-5-oxo-4,5-dihydro-1H-1,2,4-triazol-1-yl)-5-fluoro-2-((1,1,1-trifluoropropan-2-yl)oxy)nicotinamide]	8.37	6.97
CCn1c(CO)nn(-c2nc(O[C@@H](C)C(F)(F)F)c(C(=O)Nc3nc(OC)ccc3Cl)cc2F)c1=O [Example 21, (S)-N-(3-chloro-6-methoxypyridin-2-yl)-6-(4-ethyl-3-(hydroxymethyl)-5-oxo-4,5-dihydro-1H-1,2,4-triazol-1-yl)-5-fluoro-2-((1,1,1-trifluoropropan-2-yl)oxy)nicotinamide]	8.92	8.74

Results, then the compound that gave them:

pEC50 (human DHODH)	pEC50 (MOLM-13 cells)	Structure (SMILES)
8.37	9.03	CCn1c(C(C)O)nn(-c2nc(O[C@@H](C)C(F)(F)F)c(C(=O)Nc3c(C)n[nH]c3C(F)(F)F)cc2F)c1=O (mixture of isomers) [Example 127, (Racemic)-6-[4-Ethyl-3-(1-hydroxyethyl)-5-oxo-1,2,4-triazol-1-yl]-5-fluoro-N-[3-methyl-5-(trifluoromethyl)-1H-pyrazol-4-yl]-2-(2,2,2-trifluoro-1-methyl-ethoxy)pyridine-3-carboxamide]
8.21	8.28	CCn1c(CO)nn(-c2nc(O[C@@H](C)C(F)(F)F)c(C(=O)Nc3ccccc3F)cc2F)c1=O [Example 2, (S)-6-(4-Ethyl-3-(hydroxymethyl)-5-oxo-4,5-dihydro-1H-1,2,4-triazol-1-yl)-5-fluoro-N-(2-fluorophenyl)-2-((1,1,1-trifluoropropan-2-yl)oxy)nicotinamide]
9.61	10.43	CCn1c(CF)nn(-c2nc(O[C@@H](C)C(F)(F)F)c(C(=O)Nc3c(F)cccc3Cl)cc2F)c1=O [Example 3, (S)-N-(2-Chloro-6-fluorophenyl)-6-(4-ethyl-3-(fluoromethyl)-5-oxo-4,5-dihydro-1H-1,2,4-triazol-1-yl)-5-fluoro-2-((1,1,1-trifluoropropan-2-yl)oxy)nicotinamide]
8.55	8.19	CCn1c(CO)nn(-c2nc(O[C@@H](C)C(F)(F)F)c(C(=O)Nc3cccnc3Cl)cc2F)c1=O [Example 4, (S)-N-(2-Chloropyridin-3-yl)-6-(4-ethyl-3-(hydroxymethyl)-5-oxo-4,5-dihydro-1H-1,2,4-triazol-1-yl)-5-fluoro-2-((1,1,1-trifluoropropan-2-yl)oxy)nicotinamide]
9.43	8.83	CCn1c(CCl)nn(-c2nc(O[C@@H](C)C(F)(F)F)c(C(=O)Nc3c(F)cccc3Cl)cc2F)c1=O [Example 6, (S)-N-(2-Chloro-6-fluorophenyl)-6-(3-(chloromethyl)-4-ethyl-5-oxo-4,5-dihydro-1H-1,2,4-triazol-1-yl)-5-fluoro-2-((1,1,1-trifluoropropan-2-yl)oxy)nicotinamide]
9.30	9.66	CCn1c(CO)nn(-c2nc(OC(C)C)c(C(=O)Nc3c(F)cccc3Cl)cc2F)c1=O [Example 7, N-(2-Chloro-6-fluorophenyl)-6-(4-ethyl-3-(hydroxymethyl)-5-oxo-4,5-dihydro-1H-1,2,4-triazol-1-yl)-5-fluoro-2-isopropoxynicotinamide]
> 8.77	9.30	CCn1c(CO)nn(-c2nc(O[C@@H](C)C(F)(F)F)c(C(=O)Nc3cc(C)ccc3F)cc2F)c1=O [Example 11, (S)-6-(4-Ethyl-3-(hydroxymethyl)-5-oxo-4,5-dihydro-1H-1,2,4-triazol-1-yl)-5-fluoro-N-(2-fluoro-5-methylphenyl)-2-((1,1,1-trifluoropropan-2-yl)oxy)nicotinamide]
8.51	8.60	CCn1c(CO)nn(-c2nc(O[C@@H](C)C(F)(F)F)c(C(=O)Nc3cnsc3Br)cc2F)c1=O [Example 15, (S)-N-(5-Bromoisothiazol-4-yl)-6-(4-ethyl-3-(hydroxymethyl)-5-oxo-4,5-dihydro-1H-1,2,4-triazol-1-yl)-5-fluoro-2-((1,1,1-trifluoropropan-2-yl)oxy)nicotinamide]
6.13	< 6.00	CCn1c(CO)nn(-c2nc(O[C@@H](C)C(F)(F)F)c(C(=O)Nc3ccnnc3Cl)cc2F)c1=O [Example 16, (S)-N-(3-Chloropyridazin-4-yl)-6-(4-ethyl-3-(hydroxymethyl)-5-oxo-4,5-dihydro-1H-1,2,4-triazol-1-yl)-5-fluoro-2-((1,1,1-trifluoropropan-2-yl)oxy)nicotinamide]

Source: US20220089568A1 (Janssen Biotech, Inc., priority 2019, published 2022)
